Test results reported in paper PMC11477141, “Chemokine Receptor N-Terminus Charge Dictates Reliance on Post-Translational Modifications for Effective Ligand Capture and Following Boosting by Defense Peptides” (International Journal of Molecular Sciences, 2024).
Where no end group is shown, it is not given here.

How the values were obtained:
[1] = system: peptides corresponding to the CCR5 receptor N-terminus; details: cited from earlier work
Text: CCR5, in contrast to CCR1, has an N-terminus that is sparse in acidic amino acids but has multiple tyrosine sulfation sites as well as O-glycosylation sites, that might increase the negative charge of the receptor N-terminus through post-translational modifications. CCL5 affinity towards peptides corresponding to the CCR5 receptor N-terminus increases by ≥100-fold if the peptides are sulfated on Y10 and Y14 [30], and the same tyrosine sulfation is needed for HIV1env protein binding and viral entry.

[2] = biological target: fully sulfated version of the CCR1 N-terminal peptide; design: method as in PMID 30567735; details: read-out: affinity for the fully sulfated version of the CCR1 N-terminal peptide; cited from earlier work
naked CCR1 N-terminus = naked CCR1 N-terminus (Homo sapiens, UniProt P32246); test: Fluorescence polarization binding to FAM-labeled CCR1 N-terminal peptide; details: FAM probe 250 nM, FP buffer PBS:MilliQ 1:3, peptide 12.21 nM to 100 µM, n = 3, read-out: dissociation constant (Kd) for CCR1 N-terminal peptide
Chain of naked CCR1 N-terminus (P32246 with tags, fused parts or gaps limits assumed): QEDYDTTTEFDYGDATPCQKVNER
Method: (§1) Fluorescence polarization (FP) assay: The carboxyfluorescein (FAM)-labeled peptides representing the CCR1 and CCR5 N-termini functioned as the probes for quantifying the interaction between the receptor N-terminus and C21TP^81-111. The probe was diluted in FP buffer (1:3, PBS:MilliQ) and 10 µL was added to a final concentration of 250 nM per well in a black 384-well plate (Corning). The C21TP^81-111 peptide (2 mM) was diluted using a two-fold dilution series; 30 µL of the peptide was added to each well to final concentrations ranging from 12.21 nM to 100 µM. Blanks containing 10 µL probe and 30 µL FP buffer were included. The plate was spun down at 1000 rpm for 1 min and the FP signal was measured on a Flex station using SoftMax Pro software 7.0. Each experiment was conducted in triplicate. The binding curves were generated by plotting the FP signal, expressed as millipolarization units (mP), against C21TP^81-111 concentration. The dissociation constant (Kd) value was calculated using GraphPad Prism 9.
(§2) Probes: • CCR1: (5,6-FAM)-[…], • CCR5: (5,6-FAM)-ADYQVSSPIYDINYYTSEP.

naked CCR5 N-terminus = test: Fluorescence polarization binding to FAM-labeled CCR5 N-terminal peptide; design: species or system human
Method: as §1, §2

Kd (naked CCR1 N-terminus) [nM] | binding to the naked CCR5 N-terminus (naked CCR5 N-terminus) | Substance | increase of affinity towards CCR5 N-terminus peptides if sulfated on Y10 and Y14 [1] [fold] | Kd [2] [nM]
 |  | CCL5: human chemokine from Peprotech, overall basic | ≥ 100 | 100
~2890 | no such binding is observed | RKDRGASKTGKKGKGSKGCKRTERSQTPKGP [C21TP^81-111] |  | 
